Holding throughout (design): species or system mixed lysate of K562, MV4-11, THP-1, NCI-H1155
In experiment [1] the target is Activated CDC42 kinase 1 ; TNK2 ; Q07912 (Homo sapiens, UniProt Q07912). Particulars: DIA-MS residual binding; binder.
Experiment [2] has as its target T1, Ephrin type-B receptor 1 ; EPHB1 ; P54762 (Homo sapiens, UniProt P54762).
T1 sequence (P54762 1-984): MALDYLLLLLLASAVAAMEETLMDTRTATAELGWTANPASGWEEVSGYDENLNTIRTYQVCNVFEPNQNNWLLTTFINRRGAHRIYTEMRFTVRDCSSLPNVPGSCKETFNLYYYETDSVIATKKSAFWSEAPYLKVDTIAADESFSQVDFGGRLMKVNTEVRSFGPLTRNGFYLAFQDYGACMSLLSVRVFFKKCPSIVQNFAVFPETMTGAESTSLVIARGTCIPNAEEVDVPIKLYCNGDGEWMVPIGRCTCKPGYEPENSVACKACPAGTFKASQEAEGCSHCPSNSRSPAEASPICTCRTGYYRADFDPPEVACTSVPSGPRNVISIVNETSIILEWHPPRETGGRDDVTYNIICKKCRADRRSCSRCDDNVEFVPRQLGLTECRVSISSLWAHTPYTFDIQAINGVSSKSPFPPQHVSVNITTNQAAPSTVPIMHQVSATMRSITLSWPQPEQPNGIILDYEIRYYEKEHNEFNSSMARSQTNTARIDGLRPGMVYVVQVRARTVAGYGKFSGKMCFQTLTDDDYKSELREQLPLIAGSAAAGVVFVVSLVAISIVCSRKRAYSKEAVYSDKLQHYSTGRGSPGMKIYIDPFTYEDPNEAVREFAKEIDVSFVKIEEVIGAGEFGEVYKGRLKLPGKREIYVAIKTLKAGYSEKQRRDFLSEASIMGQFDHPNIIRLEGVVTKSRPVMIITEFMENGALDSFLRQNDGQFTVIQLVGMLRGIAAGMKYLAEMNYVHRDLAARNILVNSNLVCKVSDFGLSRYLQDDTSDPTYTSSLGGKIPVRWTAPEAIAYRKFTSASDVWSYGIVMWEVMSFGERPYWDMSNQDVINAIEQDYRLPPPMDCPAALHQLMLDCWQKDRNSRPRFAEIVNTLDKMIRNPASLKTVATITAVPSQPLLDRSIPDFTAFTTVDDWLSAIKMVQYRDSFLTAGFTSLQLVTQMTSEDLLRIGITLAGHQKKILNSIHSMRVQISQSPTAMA
Particulars: DIA-MS residual binding; binder.

Experiment [3] concerns the target Isoform 2 of Tyrosine-protein kinase Lyn ; LYN-2 ; P07948-2 (Homo sapiens, UniProt P07948). Particulars: DIA-MS residual binding; binder.
The target in experiment [4] is Isoform 4 of Serine/threonine-protein kinase SIK3 ; SIK3-8 ; Q9Y2K2-8 (Homo sapiens, UniProt Q9Y2K2). To be noted: DIA-MS residual binding; binder.
The target of experiment [5] is Isoform 6 of Tyrosine-protein kinase ABL2 ; ABL2-6 ; P42684-6 (Homo sapiens, UniProt P42684). Particulars: DIA-MS residual binding; binder.
Isoform 6 of Tyrosine-protein kinase ABL2 ; ABL2-6 ; P42684-6, sequence (P42684 whole entry, the tested form may be a part, canonical isoform): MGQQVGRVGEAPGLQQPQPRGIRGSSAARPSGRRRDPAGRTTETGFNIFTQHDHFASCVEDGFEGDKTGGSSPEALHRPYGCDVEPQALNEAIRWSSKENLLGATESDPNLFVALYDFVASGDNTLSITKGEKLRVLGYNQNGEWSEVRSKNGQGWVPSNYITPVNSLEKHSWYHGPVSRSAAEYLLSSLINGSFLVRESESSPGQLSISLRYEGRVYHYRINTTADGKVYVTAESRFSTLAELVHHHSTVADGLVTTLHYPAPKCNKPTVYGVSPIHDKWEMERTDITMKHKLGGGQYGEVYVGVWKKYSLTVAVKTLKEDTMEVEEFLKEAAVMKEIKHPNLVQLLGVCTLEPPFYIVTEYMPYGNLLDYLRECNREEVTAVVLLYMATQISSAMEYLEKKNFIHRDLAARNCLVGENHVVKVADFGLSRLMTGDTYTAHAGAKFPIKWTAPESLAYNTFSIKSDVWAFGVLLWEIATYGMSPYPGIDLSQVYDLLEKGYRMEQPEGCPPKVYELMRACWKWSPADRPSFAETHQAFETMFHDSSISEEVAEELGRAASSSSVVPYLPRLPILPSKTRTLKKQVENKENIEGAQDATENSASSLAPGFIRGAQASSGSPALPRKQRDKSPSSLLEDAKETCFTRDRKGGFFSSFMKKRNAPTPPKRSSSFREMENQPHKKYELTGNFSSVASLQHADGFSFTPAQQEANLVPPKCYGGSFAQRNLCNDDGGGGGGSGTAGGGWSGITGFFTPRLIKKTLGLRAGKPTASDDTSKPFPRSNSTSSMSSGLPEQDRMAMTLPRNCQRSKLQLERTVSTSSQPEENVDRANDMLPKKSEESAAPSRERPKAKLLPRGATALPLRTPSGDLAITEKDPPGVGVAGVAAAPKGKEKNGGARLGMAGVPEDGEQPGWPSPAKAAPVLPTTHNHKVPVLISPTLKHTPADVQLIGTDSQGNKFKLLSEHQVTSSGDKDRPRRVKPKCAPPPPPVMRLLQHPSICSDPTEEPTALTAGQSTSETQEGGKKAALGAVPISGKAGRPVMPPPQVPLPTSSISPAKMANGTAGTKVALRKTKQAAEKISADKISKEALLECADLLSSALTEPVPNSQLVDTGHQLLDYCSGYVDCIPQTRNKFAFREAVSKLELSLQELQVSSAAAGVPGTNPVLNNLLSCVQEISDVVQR
Experiment [6] concerns the target LIM domain kinase 1 ; LIMK1 ; P53667 (Homo sapiens, UniProt P53667). Particulars: DIA-MS residual binding; binder.
Experiment [7] concerns the target LIM domain kinase 2 ; LIMK2 ; P53671 (Homo sapiens, UniProt P53671). Particulars: DIA-MS residual binding; binder.
For experiment [8], the target named is Proto-oncogene tyrosine-protein kinase receptor Ret ; RET ; P07949 (Homo sapiens, UniProt P07949). Particulars: binder.
Proto-oncogene tyrosine-protein kinase receptor Ret ; RET ; P07949, sequence (P07949 whole entry): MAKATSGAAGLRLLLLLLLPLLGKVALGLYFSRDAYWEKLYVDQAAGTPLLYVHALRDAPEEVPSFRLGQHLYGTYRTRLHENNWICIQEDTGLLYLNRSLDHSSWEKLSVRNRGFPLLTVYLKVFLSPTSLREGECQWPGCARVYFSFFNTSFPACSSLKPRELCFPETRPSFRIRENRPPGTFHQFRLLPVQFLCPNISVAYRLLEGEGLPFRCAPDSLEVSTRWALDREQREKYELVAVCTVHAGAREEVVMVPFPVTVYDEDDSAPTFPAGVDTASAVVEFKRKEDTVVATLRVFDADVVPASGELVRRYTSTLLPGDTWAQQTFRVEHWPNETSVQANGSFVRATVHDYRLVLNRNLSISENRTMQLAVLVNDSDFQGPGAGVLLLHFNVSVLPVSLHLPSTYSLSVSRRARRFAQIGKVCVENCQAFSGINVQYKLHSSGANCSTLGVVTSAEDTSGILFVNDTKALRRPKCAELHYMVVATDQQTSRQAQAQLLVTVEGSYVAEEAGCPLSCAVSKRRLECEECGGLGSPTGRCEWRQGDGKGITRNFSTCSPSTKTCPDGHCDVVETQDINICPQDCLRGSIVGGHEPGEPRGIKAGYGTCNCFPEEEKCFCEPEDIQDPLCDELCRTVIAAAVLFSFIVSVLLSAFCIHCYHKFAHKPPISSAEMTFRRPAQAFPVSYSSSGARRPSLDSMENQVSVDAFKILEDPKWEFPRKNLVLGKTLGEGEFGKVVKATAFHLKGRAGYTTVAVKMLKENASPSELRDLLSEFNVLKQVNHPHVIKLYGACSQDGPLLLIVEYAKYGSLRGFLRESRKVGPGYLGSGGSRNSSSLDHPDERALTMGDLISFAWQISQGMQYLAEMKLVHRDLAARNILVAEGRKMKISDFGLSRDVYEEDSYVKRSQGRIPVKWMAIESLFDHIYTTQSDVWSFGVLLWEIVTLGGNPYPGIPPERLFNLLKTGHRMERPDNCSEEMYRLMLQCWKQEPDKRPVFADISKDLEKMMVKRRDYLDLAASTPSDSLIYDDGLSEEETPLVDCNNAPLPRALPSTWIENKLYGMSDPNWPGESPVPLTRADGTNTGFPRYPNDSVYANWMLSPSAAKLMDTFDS
The target in experiment [9] is Tyrosine-protein kinase Fgr ; FGR ; P09769 (Homo sapiens, UniProt P09769). To be noted: binder.
Tyrosine-protein kinase Fgr ; FGR ; P09769, sequence (P09769 whole entry): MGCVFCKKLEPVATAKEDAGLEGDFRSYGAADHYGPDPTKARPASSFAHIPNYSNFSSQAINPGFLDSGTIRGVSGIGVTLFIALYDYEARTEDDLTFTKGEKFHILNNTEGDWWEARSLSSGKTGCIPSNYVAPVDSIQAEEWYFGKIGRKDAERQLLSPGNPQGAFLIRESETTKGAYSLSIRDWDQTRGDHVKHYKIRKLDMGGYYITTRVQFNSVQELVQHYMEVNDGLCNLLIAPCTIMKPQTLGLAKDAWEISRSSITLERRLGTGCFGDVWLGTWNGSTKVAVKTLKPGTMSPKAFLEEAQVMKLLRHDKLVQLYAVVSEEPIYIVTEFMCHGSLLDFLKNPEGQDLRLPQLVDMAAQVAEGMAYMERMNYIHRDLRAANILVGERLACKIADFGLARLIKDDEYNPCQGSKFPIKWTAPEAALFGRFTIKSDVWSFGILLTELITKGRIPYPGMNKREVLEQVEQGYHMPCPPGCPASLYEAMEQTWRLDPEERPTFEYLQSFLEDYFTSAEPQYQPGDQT
Experiment [10] has as its target T2, Tyrosine-protein kinase Tec ; TEC ; P42680 (Homo sapiens, UniProt P42680).
T2 sequence (P42680 1-631): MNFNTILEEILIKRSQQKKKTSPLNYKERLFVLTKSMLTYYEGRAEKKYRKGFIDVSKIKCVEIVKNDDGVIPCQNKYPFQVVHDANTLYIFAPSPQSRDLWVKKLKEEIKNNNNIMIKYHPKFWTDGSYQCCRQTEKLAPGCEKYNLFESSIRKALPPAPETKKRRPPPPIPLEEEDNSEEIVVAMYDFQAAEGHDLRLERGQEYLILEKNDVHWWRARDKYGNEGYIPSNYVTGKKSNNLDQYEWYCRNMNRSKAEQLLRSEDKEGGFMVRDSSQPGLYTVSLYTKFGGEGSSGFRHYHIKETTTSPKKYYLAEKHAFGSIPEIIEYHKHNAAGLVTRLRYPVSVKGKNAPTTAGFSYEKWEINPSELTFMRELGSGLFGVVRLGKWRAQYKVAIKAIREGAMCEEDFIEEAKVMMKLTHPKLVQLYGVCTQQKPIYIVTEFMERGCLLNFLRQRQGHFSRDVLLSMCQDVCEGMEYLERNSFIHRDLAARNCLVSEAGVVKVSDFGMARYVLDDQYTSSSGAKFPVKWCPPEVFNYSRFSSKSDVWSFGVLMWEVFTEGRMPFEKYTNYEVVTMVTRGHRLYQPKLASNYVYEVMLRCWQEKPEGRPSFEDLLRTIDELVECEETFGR
To be noted: binder.

The structures appear in SMILES notation.

From article doi:10.1101/2024.08.13.607785v1 (biorxiv, 2024) come the findings set out here.

Isoform 2 of Tyrosine-protein kinase Lyn ; LYN-2 ; P07948-2, sequence (P07948 whole entry, canonical isoform): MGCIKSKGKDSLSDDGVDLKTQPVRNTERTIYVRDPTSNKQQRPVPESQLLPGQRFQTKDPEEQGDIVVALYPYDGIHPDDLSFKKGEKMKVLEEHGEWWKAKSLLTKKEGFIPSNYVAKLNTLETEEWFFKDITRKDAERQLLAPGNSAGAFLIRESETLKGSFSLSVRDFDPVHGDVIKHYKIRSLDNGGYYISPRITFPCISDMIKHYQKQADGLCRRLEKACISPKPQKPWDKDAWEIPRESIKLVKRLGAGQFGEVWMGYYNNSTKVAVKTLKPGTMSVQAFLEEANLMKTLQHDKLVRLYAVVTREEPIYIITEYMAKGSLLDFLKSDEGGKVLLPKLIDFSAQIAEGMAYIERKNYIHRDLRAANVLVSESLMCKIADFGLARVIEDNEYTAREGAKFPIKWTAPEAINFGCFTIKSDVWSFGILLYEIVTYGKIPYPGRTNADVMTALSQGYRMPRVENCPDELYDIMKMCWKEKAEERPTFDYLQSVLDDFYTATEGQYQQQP
Activated CDC42 kinase 1 ; TNK2 ; Q07912, sequence (Q07912 whole entry): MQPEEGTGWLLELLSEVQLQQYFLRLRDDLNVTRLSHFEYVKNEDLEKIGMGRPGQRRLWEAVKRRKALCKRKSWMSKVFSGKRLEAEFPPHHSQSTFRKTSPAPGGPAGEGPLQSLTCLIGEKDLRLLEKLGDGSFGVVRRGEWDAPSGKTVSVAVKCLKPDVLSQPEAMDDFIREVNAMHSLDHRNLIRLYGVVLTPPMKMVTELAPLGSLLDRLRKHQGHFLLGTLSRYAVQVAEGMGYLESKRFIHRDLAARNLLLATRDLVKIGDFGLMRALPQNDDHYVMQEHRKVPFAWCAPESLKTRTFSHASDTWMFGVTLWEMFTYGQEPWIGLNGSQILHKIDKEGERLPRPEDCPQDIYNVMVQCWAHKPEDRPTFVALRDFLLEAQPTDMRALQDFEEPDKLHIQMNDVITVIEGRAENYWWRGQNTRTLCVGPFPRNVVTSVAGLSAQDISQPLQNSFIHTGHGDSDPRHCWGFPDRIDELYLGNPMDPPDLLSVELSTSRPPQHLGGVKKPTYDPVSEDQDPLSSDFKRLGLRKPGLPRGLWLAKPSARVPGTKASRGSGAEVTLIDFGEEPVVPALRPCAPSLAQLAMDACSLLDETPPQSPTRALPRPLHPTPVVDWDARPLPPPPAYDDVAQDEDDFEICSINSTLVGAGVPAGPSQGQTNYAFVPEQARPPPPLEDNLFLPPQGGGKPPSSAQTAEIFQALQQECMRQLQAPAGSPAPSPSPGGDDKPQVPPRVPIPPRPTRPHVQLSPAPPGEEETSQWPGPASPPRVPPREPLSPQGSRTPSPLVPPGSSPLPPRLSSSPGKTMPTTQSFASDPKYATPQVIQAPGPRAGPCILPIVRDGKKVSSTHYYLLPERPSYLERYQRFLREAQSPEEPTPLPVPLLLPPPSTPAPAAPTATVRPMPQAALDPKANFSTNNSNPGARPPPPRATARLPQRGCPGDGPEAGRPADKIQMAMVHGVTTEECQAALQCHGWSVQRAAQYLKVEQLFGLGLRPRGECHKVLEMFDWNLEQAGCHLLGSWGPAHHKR
LIM domain kinase 1 ; LIMK1 ; P53667, sequence (P53667 whole entry, the tested form may be a part): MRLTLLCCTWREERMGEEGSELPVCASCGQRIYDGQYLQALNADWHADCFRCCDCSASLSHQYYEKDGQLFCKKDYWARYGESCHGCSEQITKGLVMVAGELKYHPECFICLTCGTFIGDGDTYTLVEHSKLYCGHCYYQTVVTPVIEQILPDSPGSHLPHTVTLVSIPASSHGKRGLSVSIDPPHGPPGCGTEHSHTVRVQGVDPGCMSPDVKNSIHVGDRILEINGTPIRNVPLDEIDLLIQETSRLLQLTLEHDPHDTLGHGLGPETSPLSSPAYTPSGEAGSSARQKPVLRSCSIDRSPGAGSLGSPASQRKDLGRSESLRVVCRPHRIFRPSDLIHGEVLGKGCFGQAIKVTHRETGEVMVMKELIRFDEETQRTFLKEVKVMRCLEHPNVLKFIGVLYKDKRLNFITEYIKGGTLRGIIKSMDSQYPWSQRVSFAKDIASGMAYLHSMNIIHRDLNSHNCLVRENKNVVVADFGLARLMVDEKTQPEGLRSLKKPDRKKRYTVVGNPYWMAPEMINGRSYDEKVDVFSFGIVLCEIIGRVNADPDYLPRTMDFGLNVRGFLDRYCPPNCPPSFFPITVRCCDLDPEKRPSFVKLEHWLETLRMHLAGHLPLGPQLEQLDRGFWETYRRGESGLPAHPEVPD

In the case of `Cc1nc(Nc2ncc(C(=O)Nc3c(C)cccc3Cl)s2)cc(N2CCN(CCO)CC2)n1` [dasatinib], the “DIA-MS / % Intensity (30 µM/DMSO)” value in experiment [1] is on record as 2.81%; in [2] it was 6.728%; in experiment [3], 1.98%; in experiment [4] it was 10.64%; in [5], 0.2688%; in experiment [6], 33.27%. Besides, the “DIA-MS / % Intensity (30 µM/DMSO)” value in experiment [7] came to 12.29%; in [8] it was 41.37%; in experiment [9], 0.4999%; in experiment [10], 7.109%.
